Measurements published in paper PMC3982047 (Nature, 2014).
Blank lines part the entries; values can stand above or below the compound they belong to. Peptide text beside a SMILES is read from it.

Legend:
AtNRT1.1 [1] = target: AtNRT1.1 (Arabidopsis thaliana, UniProt Q05085, T101D); test: microscale thermophoresis; type: binding
AtNRT1.1 [2] = target: AtNRT1.1 (Arabidopsis thaliana, UniProt Q05085); test: biochemical
AtNRT1.1 [3] = target: T1, AtNRT1.1 (Arabidopsis thaliana, UniProt Q05085); test: microscale thermophoresis; type: binding
T1 sequence (Q05085 1-590): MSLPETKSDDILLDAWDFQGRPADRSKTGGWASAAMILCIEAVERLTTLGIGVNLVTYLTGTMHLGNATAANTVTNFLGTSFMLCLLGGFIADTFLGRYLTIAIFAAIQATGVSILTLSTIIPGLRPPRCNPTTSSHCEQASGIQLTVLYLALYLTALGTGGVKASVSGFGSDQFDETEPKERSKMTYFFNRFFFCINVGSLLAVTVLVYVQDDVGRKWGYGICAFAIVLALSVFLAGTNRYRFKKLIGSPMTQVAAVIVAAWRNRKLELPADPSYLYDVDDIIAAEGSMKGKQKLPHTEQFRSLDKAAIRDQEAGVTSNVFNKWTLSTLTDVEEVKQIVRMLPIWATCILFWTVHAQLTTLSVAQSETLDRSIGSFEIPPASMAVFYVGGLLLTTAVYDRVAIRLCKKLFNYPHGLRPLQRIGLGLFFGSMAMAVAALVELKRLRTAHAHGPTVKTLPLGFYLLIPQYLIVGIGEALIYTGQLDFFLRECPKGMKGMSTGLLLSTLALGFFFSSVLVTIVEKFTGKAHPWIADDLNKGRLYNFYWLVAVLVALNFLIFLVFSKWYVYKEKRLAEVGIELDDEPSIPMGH

PepTSo = PepTSo (Shewanella oneidensis, UniProt Q8EKT7); test: microscale thermophoresis; type: binding
[4] = target: PepTSo, peptide transporter from Shewanella oniendensis (Shewanella oniendensis (so in the source)); test: MST

AtNRT1.1 (Arabidopsis thaliana, UniProt Q05085, T101D), sequence (Q05085 whole entry T101D): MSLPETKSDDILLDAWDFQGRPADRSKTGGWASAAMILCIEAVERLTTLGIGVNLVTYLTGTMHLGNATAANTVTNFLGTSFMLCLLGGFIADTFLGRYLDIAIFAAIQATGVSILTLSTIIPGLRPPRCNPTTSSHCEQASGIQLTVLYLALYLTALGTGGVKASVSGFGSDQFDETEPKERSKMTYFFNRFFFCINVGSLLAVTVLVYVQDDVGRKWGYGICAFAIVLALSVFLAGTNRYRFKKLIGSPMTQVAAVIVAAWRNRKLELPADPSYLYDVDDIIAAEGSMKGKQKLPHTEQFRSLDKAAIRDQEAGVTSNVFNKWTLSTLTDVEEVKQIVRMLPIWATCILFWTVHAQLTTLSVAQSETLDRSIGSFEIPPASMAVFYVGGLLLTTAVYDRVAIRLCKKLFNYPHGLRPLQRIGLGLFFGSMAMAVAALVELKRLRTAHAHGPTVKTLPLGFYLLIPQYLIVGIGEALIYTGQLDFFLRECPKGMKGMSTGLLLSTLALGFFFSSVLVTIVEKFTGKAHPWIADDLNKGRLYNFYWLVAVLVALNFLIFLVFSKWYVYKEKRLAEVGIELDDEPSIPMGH

Compound: O=[N+]([O-])O [nitrate]
- Kd (AtNRT1.1 [1]): 1000 ± 120 µM
- Kd (AtNRT1.1 [2]): 1000 ± 150 µM

Compound: [O-][Cl+2]([O-])O [chlorate]
- Kd (AtNRT1.1 [3]): ~5000 µM

Compound: C[C@H](N)C(=O)N[C@@H](C)C(=O)O [Ala-Ala] (H-Ala-Ala-OH)
- Kd (PepTSo): ~35 µM

- Kd [4]: 35 µM
Compound: di-peptide Ala-Ala
